According to PubChem BioAssay (NCI):
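1) Cells in 96-well plates. 2) Compound, 48 h, 5 concentrations. 3) Linear interpolation between surrounding doses. 4) Unreached endpoint = highest concentration. The concentration for full growth arrest is given as TGI.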

Tests used:
Assay in all cases: DTP human tumour cell line panel, 48 h
COLO 205 colon = system: COLO 205 colon
EKVX NSCLC = system: EKVX NSCLC
HCC-2998 colon = system: HCC-2998 colon
HCT-116 colon = system: HCT-116 colon
HCT-15 colon = system: HCT-15 colon
HOP-62 NSCLC = system: HOP-62 NSCLC
K-562 leukemia = system: K-562 leukemia
MALME-3M melanoma = system: MALME-3M melanoma
NCI-H226 lung = system: NCI-H226 lung
NCI-H460 lung = system: NCI-H460 lung
NCI-H522 lung = system: NCI-H522 lung
OVCAR-3 ovarian = system: OVCAR-3 ovarian
SF-268 CNS = system: SF-268 CNS
SF-295 CNS = system: SF-295 CNS
SK-MEL-2 melanoma = system: SK-MEL-2 melanoma
SNB-75 CNS = system: SNB-75 CNS
U251 CNS = system: U251 CNS
MDA-N = system: MDA-N
IGROV1 ovarian = system: IGROV1 ovarian
T-47D breast = system: T-47D breast

SMILES	TGI (COLO 205 colon) [µM]	TGI (EKVX NSCLC) [µM]	TGI (HCC-2998 colon) [µM]	TGI (HCT-116 colon) [µM]	TGI (HCT-15 colon) [µM]	TGI (HOP-62 NSCLC) [µM]	TGI (K-562 leukemia) [µM]	TGI (MALME-3M melanoma) [µM]	TGI (NCI-H226 lung) [µM]	TGI (NCI-H460 lung) [µM]	TGI (NCI-H522 lung) [µM]	TGI (OVCAR-3 ovarian) [µM]	TGI (SF-268 CNS) [µM]	TGI (SF-295 CNS) [µM]	TGI (SK-MEL-2 melanoma) [µM]	TGI (SNB-75 CNS) [µM]	TGI (U251 CNS) [µM]	TGI (MDA-N) [µM]	TGI (IGROV1 ovarian) [µM]	TGI (T-47D breast) [µM]
N#Cc1ccc(Nc2cnc3cc(N)ccc3n2)cc1	> 100	> 100	> 100	> 100	> 100	> 100	> 100	> 100	> 100	> 100	> 100	> 100	> 100	> 100	> 100	> 100	> 100	–	–	–
CC(C)N(CCCNc1c2ccccc2nc2cccc([N+](=O)[O-])c12)C(C)C	< 0.015	–	< 0.01	0.391	0.012	–	62.3	–	0.325	< 0.0445	–	–	–	< 0.0457	0.24	0.149	< 0.0365	< 0.01	–	–
COC1=C(C)C(=O)C2C(C1=O)C(c1ccc(OC)c(OC)c1)[C@H]2C (stereo partly specified)	> 100	> 100	> 100	–	> 100	> 100	> 100	> 100	> 100	> 100	> 100	> 100	> 100	> 100	> 100	> 100	> 100	–	> 100	–
O=S1(=O)COc2ccccc2-c2ncncc21	> 100	> 100	> 100	> 100	> 100	> 100	> 100	> 100	> 100	> 100	> 100	> 100	> 100	> 100	–	> 100	> 100	–	> 100	–
O=C(O)C(F)(OC(F)(F)C(F)(F)C(F)(F)F)C(F)(F)F (stereo unspecified)	> 100	> 100	> 100	> 100	> 100	> 100	> 100	> 100	> 100	> 100	> 100	> 100	> 100	> 100	> 100	> 100	> 100	–	> 100	> 100
COc1ccc(C2Cc3cc(OC)c(OC)c(OC)c3C2=O)cc1 (stereo unspecified)	> 100	> 100	> 100	> 100	> 100	> 100	> 100	> 100	> 100	> 100	–	> 100	> 100	> 100	> 100	> 100	> 100	–	> 100	–
COc1ccc(NC(=O)CSc2nnc(Cc3ccccc3)o2)cc1	> 100	–	> 100	> 100	> 100	> 100	> 100	> 100	> 100	> 100	> 100	> 100	> 100	> 100	> 100	> 100	> 100	–	> 100	–
O=C(CN1CCOCC1)c1ccc2[nH]c(=O)oc2c1	> 100	> 100	–	> 100	> 100	> 100	> 100	> 100	> 100	> 100	–	> 100	> 100	> 100	> 100	> 100	> 100	> 100	> 100	–
Cc1cc(=O)cc2sc3cc(Cl)ccc3nc1-2	53.7	25	24.6	28.7	16	29.7	20.6	39.7	65.6	35.4	7.65	31.9	79.5	26.6	23.5	15.7	33.9	–	52	–
COC(=O)C(C(=O)C(=O)Nc1c(Cl)cc([N+](=O)[O-])cc1Cl)c1nc2cc(C)c(C)cc2[nH]c1=O (stereo unspecified)	> 100	> 100	> 100	> 100	> 100	> 100	> 100	> 100	> 100	> 100	> 100	> 100	> 100	> 100	> 100	> 100	> 100	–	> 100	–
C=CCOC1=C2CC[C@H](O)[C@@]2(C)CCC1=O	> 100	> 100	> 100	> 100	> 100	> 100	–	> 100	> 100	> 100	> 100	> 100	> 100	> 100	–	> 100	> 100	–	> 100	–
Cn1c(=O)c2c(ncn2CCCCn2ccnc2[N+](=O)[O-])n(C)c1=O	> 100	> 100	–	> 100	> 100	> 100	> 100	> 100	> 100	> 100	> 100	> 100	> 100	> 100	> 100	> 100	> 100	–	> 100	–
CCCCCCCCCCCCCCCCc1c(C(=O)OC)[nH]c(=S)[nH]c1=O	> 50	> 50	> 50	> 50	> 50	> 50	> 50	> 50	–	> 50	> 50	> 50	> 50	> 50	> 50	> 50	> 50	–	> 50	–
Cc1ccc(/C=C/C(=O)c2sc(C(N)=S)nc2C)cc1	> 100	> 100	> 100	–	> 100	> 100	> 100	> 100	> 100	> 100	> 100	> 100	> 100	> 100	> 100	> 100	> 100	–	> 100	–
